Columns and labels:
guinea pigs = experiment: Antitussive assay: citric acid aerosol-induced cough in conscious guinea pigs, intragastric administration; assay type: in vivo, guinea pig; details: 0.5 M citric acid aerosol for 10 min, versus 1st challenge, HCl salt form in saline
Protocol: Unrestrained conscious guinea pigs were individually placed in a transparent Perspex airtight chamber and exposed to 0.5 M citric acid aerosol produced by an ultrasonic nebulizer (NEU12, Omron, Tokyo, Japan) for 10 min with a flow rate of 0.6 ml/min. During the 10 min observation period, the animals were continuously observed, and the numbers and timing of typical body movement of cough responses including opening the mouth, contraction of thoracic and abdomen muscles and a jerking of the front body were noted. The cough sounds were concurrently picked up via a microphone which connected to a personal computer and analyzed by Cool Edit 2000 software (Syntrillium, Phenix, USA). Thus a cough response can be differentiated from a sneeze and other background noises by observation of body movements, cough sound from loudspeakers and wave patterns recorded in the computer. Animals producing cough more than 18 times but less than 30 in the first challenge were selected for further antitussive tests. Cough episodes during the first challenge were recorded as control data. After 72 hour recovery, the selected sensitive animals were randomly divided into several groups with six animals in each group. The test samples were changed to their salt forms with 4% HCl to dissolve in saline and administrated intragastrically.
In the present experiments, neotuberostemonine produced a reduction in cough episodes by 17 and 40% (P<0.01 versus 1st challenge) at 25 and 50 mg/kg i.g., respectively. […] These two alkaloids are different from neotuberostemonine in molecular skeletons (i.e., base structures). Neotuberostemonine belongs to the stenine group while croomine and stemoninine belong to the tuberostemospironine and stemoamide groups, respectively. […] Since croomine and stemoninine are the major components of Radix Stemonae, they provided scientific evidence for the use of Radix Stemonae for cough treatment in folk medicines and in PRC Pharmacopeia.

cough = details: intraperitoneal, at the same dosage; Chung et al., Planta Med. 2003; cited from earlier work

SMILES | reduction in cough episodes (guinea pigs; 25 mg/kg i.g.) [%] | reduction in cough episodes (guinea pigs; 50 mg/kg i.g.) [%] | inhibition (of cough) (cough) [%]
CC[C@H]1[C@H]2[C@@H](CCCN3[C@H]2CC[C@H]3[C@@H]2C[C@H](C)C(=O)O2)O[C@]12C=C(C)C(=O)O2 [Stemoninine] | 32 | 66 | 
C[C@@H]1C[C@]2(CCCCN3[C@H]2CC[C@H]3[C@@H]2C[C@H](C)C(=O)O2)OC1=O [croomine, Croomine] | 35 | 57 | 
CC[C@@H]1[C@H]2CCCCN3[C@H]2[C@@H](C[C@H]3[C@@H]2C[C@H](C)C(=O)O2)[C@H]2[C@@H]1OC(=O)[C@H]2C [neotuberostemonine, reference compound] | 17 | 40 | 85
